According to patent US20240382409A1, “COMPOSITION FOR ANTI-AGING AND SKIN IMPROVEMENT, COMPRISING COMPLEX OF INDIAN GOOSE-BERRY EXTRACT AND BARLEY SPROUT EXTRACT (lB COMPLEX) AS ACTIVE INGREDIENT” (HLSCIENCE CO., LTD, priority 2021, published 2024):
In brackets after ≈: the same amount, converted by molar mass.

Assay: Anti-oxidation test: DPPH radical scavenging activity
Type: biochemical
Conditions: positive control
Experimental: In order to investigate the anti-oxidant effect using Examples 1 to 7 and Comparative examples 1 to 2, the DPPH (2,2-diphenyl-1-picryl hydrazyl) radical scavenging activity was evaluated.
The Examples 1 to 7 and Comparative examples 1 to 2 were mixed with 55 μM DPPH solution 450 μl by concentration and then reacted at 4° C. for 30 minutes. After completing the reaction, each sample was placed in a 96-well plate and the absorbance of samples was measured at 520 nm using a micro-plate reader. Then, a sample untreated group was used as a control group, and the free radical scavenging activity (%) of the sample was calculated as Equation 1 below.
Then, as a positive control scavenging radicals, ascorbic acid was used, and the concentration of ascorbic acid when the free radical scavenging activity was 50% was shown as 1.63 μg/mL.
IC50 means the concentration of sample when the free radical scavenging activity of the treated sample is 50%. Table 5 above summarizes the free radical scavenging activity in 5 μg/mL of each sample. […] It could be confirmed that the DPPH radical scavenging activity of Example 5 was the most excellent among them.

- IC50 (concentration when the free radical scavenging activity is 50%): 1.63 µg/mL (≈ 9.25 µM)
SMILES: O=C1O[C@H]([C@@H](O)CO)C(O)=C1O [Ascorbic acid, ascorbic acid]
